The results in this text go back to the SangsterLogP compilation.

Each structure is given as a SMILES string.

This data set is described as follows: method code SF, from Suwinski, J.; Salwinska, E.; Watras, J.; Widel, M. (1985). Nitroimidazoles. VI. Partition coefficients and tautomerism of simple nitroimidazoles. 42(4)352-358.

The compound `Cc1nc(Br)n(C)c1[N+](=O)[O-]` yielded a logP of 0.82.

For the compound `Cc1c([N+](=O)[O-])nc(Br)n1C`, the log partition coefficient (logP) worked out at 0.39. In the case of `Cc1nc([N+](=O)[O-])c(Cl)[nH]1` it was 1.06; in that of `Cc1nc(Br)c([N+](=O)[O-])n1C`, 0.87; in that of `Cc1nc([N+](=O)[O-])c(Cl)n1C`, 0.34. In the case of `Cn1c([N+](=O)[O-])cnc1Cl` it was 0.62. In the case of `Cc1nc([N+](=O)[O-])c(Br)n1C` it was 0.44. `Cc1nc([N+](=O)[O-])cn1C` registered a logP of -0.24. The same measure for `Cn1cnc([N+](=O)[O-])c1N`: -1; for `Cc1nc([N+](=O)[O-])c(N)n1C`: -1.1; for `COc1[nH]cnc1[N+](=O)[O-]`: 0.13.

Regarding `Cn1cc([N+](=O)[O-])nc1Cl`, the logP was found to be 0.19.

Turning to `Cn1ccnc1[N+](=O)[O-]`, the logP was -0.17. `Cn1cnc([N+](=O)[O-])c1` showed a lipophilicity (logP) of -0.44. In the case of `O=[N+]([O-])c1[nH]cnc1Br` it was 0.78. In the case of `Cc1[nH]cnc1[N+](=O)[O-]` it was 0.23. The same measure for `O=[N+]([O-])c1ncc[nH]1`: 0.11; for `Cc1nc(Cl)c([N+](=O)[O-])n1C`: 0.87; for `Cn1cnc(Br)c1[N+](=O)[O-]`: 0.77. Regarding `Cn1cc([N+](=O)[O-])nc1Br`, the logP was determined as 0.33.

Turning to `Cn1cncc1[N+](=O)[O-]`, the lipophilicity (logP) was 0.13. With `Cc1nc([N+](=O)[O-])c(Br)[nH]1`, the lipophilicity (logP) turned out to be 1.14. In the case of `Cc1c([N+](=O)[O-])ncn1C` it was -0.11; in that of `COc1c([N+](=O)[O-])ncn1C`, 0.19; in that of `COc1c([N+](=O)[O-])nc(C)n1C`, -0.09.

In turn, `Cn1cnc([N+](=O)[O-])c1Br` came in with a logP of 0.36. Take `Cc1[nH]c(Br)nc1[N+](=O)[O-]`: the log partition coefficient (logP) was 0.86.

`COc1[nH]c(C)nc1[N+](=O)[O-]` displayed a lipophilicity (logP) of 0.21. In the case of `Cn1cnc(Cl)c1[N+](=O)[O-]` it was 0.69.
